According to the NIST ThermoML archive (doi:10.1016/j.jct.2017.03.024):

Conditions: Liquid, Closed cell (Static) method

O [water]
Conditions	vapor or sublimation pressure [kPa]
298 K	3.35
313 K	7.4
323 K	12.12
328.2 K	15.07
333 K	18.99
337.5 K	23.33
